Experimental findings from patent US20250197368A1 (priority 2020, published 2025) are described below.

SMILES strings stand for the structures.

For one test, the system named is human α2β3γ2 GABAARs. Description: In vitro electrophysiological recording assay (automated patch-clamp), α2-GABAAR relative efficacy. Format: cell-based. Conditions: % efficacy normalised to diazepam; GABA EC10-20; concentration generally >= 100 times Ki. The method, boiled down: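 Automated whole-cell patch clamp at 20-22° C on L(tk^−) cells (QPatch, −65 mV) or HEK293 cells (SyncroPatch, −80 mV) stably expressing the human receptor. Compound pre-applied ≥1 min, then co-applied with GABA EC10-20; % potentiation of leak-corrected peak current, normalised to diazepam, typically at ≥100× Ki.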
A general note: In patch-clamp work, channel activity is measured electrically.

For test [1], the target named is human α3β3γ2 GABAARs (benzodiazepine site) (Homo sapiens (Human), UniProt P18507+P34903). Description: In vitro radioligand binding assay ([3H]Ro15-1788 displacement), α3-GABAAR Ki. The note with it: L(tk-) cell membranes, 4 nM [3H]Ro15-1788. How it is done:
The affinity (Ki) of compounds for the benzodiazepine site of human recombinant GABAARs was measured by their ability to inhibit the binding of the selective benzodiazepine antagonist [^3H]Ro15-1788 ([^3H] flumazenil).
Mouse L(tk^−) cells stably expressing human α1β3γ2, α2β3γ2, α3β3γ2, α5β3γ2 GABAARs were generated by transfection of the individual subunits in the dexamethasone-inducible expression vector pMSGneo in mouse L(tk^−) cells (Hadingham et al., 1993, Mol. Pharmacol. 43:970-975 and 1993, Mol. Pharmacol. 44:1211-1218).
L(tk^−) cells stably expressing human α1β3γ2, α2β3γ2, α3β3γ2, α5β3γ2 GABAARs were maintained in DMEM F12 medium supplemented with 10% Foetal Bovine Serum, 1% Penicillin/Streptomycin and 1 mg/mL Geneticin G418 in an incubator at 37° C. with a humidified atmosphere with 5% CO2. Dexamethasone was added to the culture medium to induce GABAAR expression.
L(tk−) cells were harvested and membranes were prepared for each receptor combination in either TE buffer (10 mM Tris·CI/0.1 mM EDTA, pH 7.5) or phosphate buffer (K2PO4 10 mM, pH 7.0) (Hadingham et al. (1992) Proc. Natl. Acad. Sci. USA; 89 (14): 6378-82). Protein concentration, receptor expression and the Kd of [^3H]Ro15-1788 were determined before Ki value of the compounds were evaluated. For Kd evaluation, saturation binding curves were obtained by incubating membrane with various concentrations of [^3H]Ro15-1788 (82.5 Ci/mM), with nonspecific binding measured in the presence of 1-3 μM TP003.
For Ki evaluation, cell membranes were incubated with 4 nM [^3H]Ro15-1788 along with a range of concentrations of test compound. Nonspecific binding was determined using 1-3 μM TP003. All incubations were performed for 1 hour at 4° C. in assay buffer. The total assay volume was 0.5 mL, containing 40 μg/well α1β3γ2, 30 μg/well α2β3γ2, 40 μg/well α3β3γ2 and 30 μg/well for α5β3γ2 of membrane protein. Incubations were terminated by filtration and washing with ice cold Tris-HCl buffer (50 mM, pH=7.4) over Whatman GF/B filters and the radioactivity of the filters was measured using liquid scintillation counting.
The % inhibition of [^3H]Ro15-1788 binding was plotted as a function of compound concentration and the IC50 calculated. From the IC50, the affinity (Ki) was calculated using the method of Cheng and Prusoff using the Kd values obtained for [^3H]Ro15-1788.

Test [2] deals with human α2β3γ2 GABAARs (benzodiazepine site) (Homo sapiens (Human), UniProt P18507+P47869). Description: In vitro radioligand binding assay ([3H]Ro15-1788 displacement), α2-GABAAR Ki. The method, boiled down:
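Membranes from dexamethasone-induced mouse L(tk−) cells stably expressing the human receptor were incubated 1 h at 4° C with 4 nM [3H]Ro15-1788 and graded compound; nonspecific binding with 1-3 μM TP003. Filter-bound radioactivity counted; Ki from IC50 by Cheng-Prusoff using the measured radioligand Kd.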

Sequence of human α2β3γ2 GABAARs (benzodiazepine site) (P47869 29-451): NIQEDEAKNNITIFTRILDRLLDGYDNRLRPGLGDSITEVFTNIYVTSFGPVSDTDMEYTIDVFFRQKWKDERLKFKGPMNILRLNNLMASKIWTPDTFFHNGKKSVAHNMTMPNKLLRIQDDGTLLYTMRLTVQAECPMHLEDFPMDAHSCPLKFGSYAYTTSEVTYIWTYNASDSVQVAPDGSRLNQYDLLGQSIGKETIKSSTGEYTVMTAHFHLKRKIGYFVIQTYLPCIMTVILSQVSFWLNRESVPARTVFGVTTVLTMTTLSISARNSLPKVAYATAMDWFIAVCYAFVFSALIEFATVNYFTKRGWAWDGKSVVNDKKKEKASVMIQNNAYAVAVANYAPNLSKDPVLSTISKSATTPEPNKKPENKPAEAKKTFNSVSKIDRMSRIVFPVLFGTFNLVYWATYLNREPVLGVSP
Sequence of human α2β3γ2 GABAARs (benzodiazepine site) (P28472 26-473 partner): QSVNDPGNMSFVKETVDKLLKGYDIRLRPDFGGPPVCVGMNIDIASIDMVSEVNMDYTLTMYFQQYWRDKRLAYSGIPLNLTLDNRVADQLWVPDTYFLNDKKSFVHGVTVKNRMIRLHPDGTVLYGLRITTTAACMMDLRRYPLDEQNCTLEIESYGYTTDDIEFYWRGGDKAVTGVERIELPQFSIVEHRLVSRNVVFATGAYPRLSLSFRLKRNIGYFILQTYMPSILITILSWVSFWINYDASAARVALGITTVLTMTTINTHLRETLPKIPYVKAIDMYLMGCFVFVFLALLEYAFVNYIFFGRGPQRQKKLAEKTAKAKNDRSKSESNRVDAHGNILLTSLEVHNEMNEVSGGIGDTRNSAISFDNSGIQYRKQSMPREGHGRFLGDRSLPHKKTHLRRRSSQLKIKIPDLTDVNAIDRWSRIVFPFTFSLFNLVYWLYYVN
Sequence of human α2β3γ2 GABAARs (benzodiazepine site) (P18507 40-475): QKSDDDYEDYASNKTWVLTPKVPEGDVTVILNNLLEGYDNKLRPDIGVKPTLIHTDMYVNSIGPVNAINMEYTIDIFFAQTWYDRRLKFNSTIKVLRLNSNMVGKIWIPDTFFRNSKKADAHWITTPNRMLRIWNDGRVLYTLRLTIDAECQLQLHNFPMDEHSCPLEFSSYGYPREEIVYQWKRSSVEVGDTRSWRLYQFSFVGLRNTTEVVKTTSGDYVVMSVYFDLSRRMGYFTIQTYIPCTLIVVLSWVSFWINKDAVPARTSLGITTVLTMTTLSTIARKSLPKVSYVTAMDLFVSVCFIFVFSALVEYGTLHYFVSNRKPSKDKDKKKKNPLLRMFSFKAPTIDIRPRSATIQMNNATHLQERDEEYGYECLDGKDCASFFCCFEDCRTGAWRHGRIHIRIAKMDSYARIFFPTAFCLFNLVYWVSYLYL

One may read the Ki as the equilibrium dissociation constant of an inhibitor or competing ligand from its target. For the compound `CCCNC(=O)c1c(N)c2cccc(-c3cc(OCc4csc(C)n4)ccc3F)c2[nH]c1=O` [Example 120, 4-Amino-8-(2-fluoro-5-((2-methylthiazol-4-yl)methoxy)phenyl)-2-oxo-N-propyl-1,2-dihydroquinoline-3-carboxamide], the “α2-GABAAR Relative Efficacy (vs. Diazepam)” value (“α2-GABAAR Relative Efficacy” for short) in the test on human α2β3γ2 GABAARs was determined as 0.21. Further, the Ki in test [1] was 1.18 nM; in test [2], 1.19 nM.

On to `CCCNC(=O)c1c(N)c2cccc(-c3cccc4c3OC(F)(F)O4)c2[nH]c1=O` [Example 51, 4-Amino-8-(2,2-difluoro-1,3-benzodioxol-4-yl)-2-oxo-N-propyl-1H-quinoline-3-carboxamide], for which the “α2-GABAAR Relative Efficacy” value with human α2β3γ2 GABAARs was 0.31. In addition, the Ki in test [1] was 1.63 nM; in test [2], 1.71 nM.

With `CCCNC(=O)c1c(N)c2cccc(-c3nc(C(F)(F)F)ccc3C)c2[nH]c1=O` [Example 13, 4-Amino-8-[3-methyl-6-(trifluoromethyl)-2-pyridyl]-2-oxo-N-propyl-1H-quinoline-3-carboxamide], in the test with human α2β3γ2 GABAARs, the “α2-GABAAR Relative Efficacy” value is recorded as 0.34. Also, the Ki in test [1] was found to be 7.6 nM; in test [2], 6.05 nM.

Regarding `CCCNC(=O)c1c(N)c2cccc(-c3cncc(OC)c3)c2[nH]c1=O` [Example 23, 4-Amino-8-(5-methoxy-3-pyridyl)-2-oxo-N-propyl-1H-quinoline-3-carboxamide], the “α2-GABAAR Relative Efficacy” value in the test with human α2β3γ2 GABAARs stood at 0.33. In addition, the Ki in test [1] worked out at 7.21 nM; in test [2], 2.31 nM.

With `CCCNC(=O)c1c(N)c2cccc(-c3cc(F)ccn3)c2[nH]c1=O` [Example 4, 4-Amino-8-(4-fluoro-2-pyridyl)-2-oxo-N-propyl-1H-quinoline-3-carboxamide], the “α2-GABAAR Relative Efficacy” value with human α2β3γ2 GABAARs is on record as 0.40. Moreover, the Ki in test [1] was 1.65 nM; in test [2], 1.26 nM.

Consider `CCCNC(=O)c1c(N)c2cccc(-c3nc(OC)ccc3F)c2[nH]c1=O` [Example 8, 4-Amino-8-(3-fluoro-6-methoxypyridin-2-yl)-2-oxo-N-propyl-1,2-dihydroquinoline-3-carboxamide], for which the “α2-GABAAR Relative Efficacy” value in the test on human α2β3γ2 GABAARs is 0.24. Moreover, the Ki was 0.19 nM in test [1] and 0.38 nM in test [2].

On to `CCCNC(=O)c1c(N)c2cccc(-c3cc(OCc4cccc(C)n4)ccc3F)c2[nH]c1=O` [Example 88, 4-Amino-8-[2-fluoro-5-[(6-methyl-2-pyridyl)methoxy]phenyl]-2-oxo-N-propyl-1H-quinoline-3-carboxamide], for which the “α2-GABAAR Relative Efficacy” value with human α2β3γ2 GABAARs is reported as 0.26. The Ki came out at 1.37 nM in test [1] and 1.97 nM in test [2].

Turning to `CCCNC(=O)c1c(N)c2cccc(-c3cc(OCc4nnc(C(F)(F)F)o4)ccc3F)c2[nH]c1=O` [Example 132, 4-Amino-8-[2-fluoro-5-[[5-(trifluoromethyl)-1,3,4-oxadiazol-2-yl]methoxy]phenyl]-2-oxo-N-propyl-1H-quinoline-3-carboxamide], the “α2-GABAAR Relative Efficacy” value in the test with human α2β3γ2 GABAARs amounted to 0.24. Further, the inhibition constant (Ki) in test [1] is 1.19 nM; in test [2] it was 0.66 nM.

For the compound `CCCNC(=O)c1c(N)c2cccc(-c3cc(OCc4coc(C)n4)ccc3F)c2[nH]c1=O` [Example 122, 4-Amino-8-(2-fluoro-5-((2-methyloxazol-4-yl)methoxy)phenyl)-2-oxo-N-propyl-1,2-dihydroquinoline-3-carboxamide], the “α2-GABAAR Relative Efficacy” value with human α2β3γ2 GABAARs turned out to be 0.33. The Ki in test [1] came to 3.56 nM; in test [2], 0.89 nM.

In the case of `CCCNC(=O)c1c(N)c2cccc(-c3cncc(OC(C)C)c3)c2[nH]c1=O` [Example 27, 4-Amino-8-(5-isopropoxypyridin-3-yl)-2-oxo-N-propyl-1,2-dihydroquinoline-3-carboxamide], the “α2-GABAAR Relative Efficacy” value in the test with human α2β3γ2 GABAARs was determined as 0.28. Also, the Ki in test [1] stood at 10.6 nM; in test [2], 22.7 nM.

Regarding `CCCNC(=O)c1c(N)c2cccc(-c3cc(CN4CCC5(CC4)CN(C)C5)ccc3F)c2[nH]c1=O` [Example 144, 4-Amino-8-(2-fluoro-5-((2-methyl-2,7-diazaspiro[3.5]nonan-7-yl)methyl)phenyl)-2-oxo-N-propyl-1,2-dihydroquinoline-3-carboxamide], the “α2-GABAAR Relative Efficacy” value in the test on human α2β3γ2 GABAARs came to 0.41. In addition, the Ki in test [1] was found to be 5.43 nM; in test [2], 1.99 nM.

With `CCCNC(=O)c1c(N)c2cccc(-c3cc(OCc4cocn4)ccc3F)c2[nH]c1=O` [Example 121, 4-Amino-8-[2-fluoro-5-(oxazol-4-ylmethoxy)phenyl]-2-oxo-N-propyl-1H-quinoline-3-carboxamide], the “α2-GABAAR Relative Efficacy” value in the test on human α2β3γ2 GABAARs turned out to be 0.35. Further, the Ki was found to be 0.61 nM in test [1] and 0.3 nM in test [2].

For `CCCNC(=O)c1c(N)c2cccc(-c3ncccc3C)c2[nH]c1=O` [Example 5, 4-Amino-8-(3-methylpyridin-2-yl)-2-oxo-N-propyl-1,2-dihydroquinoline-3-carboxamide], the “α2-GABAAR Relative Efficacy” value with human α2β3γ2 GABAARs is reported as 0.42. Moreover, the values for the Ki in test [1] and in test [2] were 16.1 nM and 5.66 nM, respectively.

As for `CCCNC(=O)c1c(N)c2cccc(-c3cccnc3OC)c2[nH]c1=O` [Example 14, 4-Amino-8-(2-methoxypyridin-3-yl)-2-oxo-N-propyl-1,2-dihydroquinoline-3-carboxamide], in the test on human α2β3γ2 GABAARs, the “α2-GABAAR Relative Efficacy” value was 0.45. Moreover, the values for the Ki in test [1] and in test [2] were 6.02 nM and 2.13 nM, respectively.

As to `CCCNC(=O)c1c(N)c2cccc(-c3ccnn3C)c2[nH]c1=O` [Example 53, 4-Amino-8-(2-methylpyrazol-3-yl)-2-oxo-N-propyl-1H-quinoline-3-carboxamide], in the test with human α2β3γ2 GABAARs, the “α2-GABAAR Relative Efficacy” value was 0.17. Besides, the Ki in test [1] is 18.4 nM; in test [2], 8.05 nM.

Consider `CCCNC(=O)c1c(N)c2cccc(-c3cccc(OC(F)F)n3)c2[nH]c1=O` [Example 2, 4-Amino-8-(6-(difluoromethoxy)pyridin-2-yl)-2-oxo-N-propyl-1,2-dihydroquinoline-3-carboxamide], for which the “α2-GABAAR Relative Efficacy” value with human α2β3γ2 GABAARs was 0.34. Further, the results for the Ki in test [1] and in test [2] were 1.59 nM and 3.33 nM, respectively.

`CCCNC(=O)c1c(N)c2cccc(-c3cc(OCc4nc(C)cs4)ccc3F)c2[nH]c1=O` [Example 118, 4-Amino-8-[2-fluoro-5-[(4-methylthiazol-2-yl)methoxy]phenyl]-2-oxo-N-propyl-1H-quinoline-3-carboxamide]: in the test with human α2β3γ2 GABAARs, the “α2-GABAAR Relative Efficacy” value is given as 0.29. Further, the Ki in test [2] is 0.5 nM.
